Measurements from patent publication US10399989B2, “Pyrazolopyrimidine derivatives as BTK inhibitors for the treatment of cancer” (Loxo Oncology, Inc., priority 2016, dated 2019).

Assays:
EGFR = EGFR (Homo sapiens (Human), UniProt P00533); test: EGFR binding affinity (TR-FRET, LanthaScreen); details: 5 h incubation
How it was run: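 IC50 derived by variable-slope fit of TR-FRET signal (ex 340, em 615 and 665 nm) against inhibitor concentration. Mix contained recombinant GST-detected EGFR at 2.5 nM, Eu anti-GST antibody at 2 nM and Kinase Tracer 199 at 3 nM in Kinase Buffer A, 5 h incubation.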

[1] = system: OCI-Ly10 human DLBCL cells; test: OCI-Ly10 anti-proliferative activity (Resazurin, 72 h); type: cell-based; details: Homo sapiens, OCI-Ly10, 72 h, read-out: Proliferation OCI-Ly10-IC50
How it was run: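 Resazurin fluorescence (590 nm, 5 h dye incubation) read after 72 h compound exposure at 37 °C; NFκB-dependent cells seeded at 7.5×10^3/well in 2.5% FBS medium. Day 0 signal subtracted, values normalised to DMSO control; IC50 from log[inhibitor] vs response, variable-slope fit.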

BTK^WT = BTK^WT (Homo sapiens (Human), UniProt Q06187); test: BTK^WT binding affinity (TR-FRET, LanthaScreen); details: TR-FRET binding, 5 h incubation; read-out: BTK^WT IC50
How it was run: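 Tracer-displacement TR-FRET: 2.5 nM recombinant BTK, 2 nM Eu anti-His antibody and 15 nM Kinase Tracer 236 in Kinase Buffer A with inhibitor for 5 h. Emission read at 615/665 nm (excitation 340 nm); IC50 from variable-slope fit of log concentration vs response.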

BTK^C481S = BTK^C481S (Homo sapiens (Human), UniProt Q06187, C481S); test: BTK^C481S binding affinity (TR-FRET, LanthaScreen); details: 5 h incubation
How it was run: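 Tracer-displacement TR-FRET: 5 nM recombinant kinase, 2 nM Eu anti-His antibody and 30 nM Kinase Tracer 236 incubated 5 h with varying inhibitor in Kinase Buffer A. Read at 340 nm excitation, 615/665 nm emission. IC50 from log[inhibitor]–response variable-slope fit.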

Sequence of BTK^C481S (Q06187 whole entry C481S): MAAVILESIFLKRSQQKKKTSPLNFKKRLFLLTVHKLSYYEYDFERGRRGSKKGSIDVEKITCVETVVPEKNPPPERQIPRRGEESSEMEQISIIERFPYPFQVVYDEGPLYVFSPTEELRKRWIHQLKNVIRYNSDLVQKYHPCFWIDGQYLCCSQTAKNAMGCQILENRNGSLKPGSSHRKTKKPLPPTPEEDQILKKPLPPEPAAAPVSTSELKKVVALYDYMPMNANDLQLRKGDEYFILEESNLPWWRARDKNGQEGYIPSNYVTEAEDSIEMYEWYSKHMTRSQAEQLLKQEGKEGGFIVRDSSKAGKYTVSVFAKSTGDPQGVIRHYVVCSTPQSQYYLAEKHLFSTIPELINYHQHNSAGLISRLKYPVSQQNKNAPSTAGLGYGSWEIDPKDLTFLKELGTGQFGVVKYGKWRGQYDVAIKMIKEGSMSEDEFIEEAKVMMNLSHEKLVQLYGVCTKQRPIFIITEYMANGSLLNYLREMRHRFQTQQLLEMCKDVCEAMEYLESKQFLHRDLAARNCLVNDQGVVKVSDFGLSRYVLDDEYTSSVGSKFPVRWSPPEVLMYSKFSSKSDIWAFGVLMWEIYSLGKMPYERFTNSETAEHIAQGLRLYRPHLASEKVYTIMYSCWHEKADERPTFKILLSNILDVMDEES
Sequence of BTK^WT (Q06187 whole entry): as the sequence (Q06187 whole entry C481S) above, with S481C counted along it
Sequence of EGFR (P00533 25-1210): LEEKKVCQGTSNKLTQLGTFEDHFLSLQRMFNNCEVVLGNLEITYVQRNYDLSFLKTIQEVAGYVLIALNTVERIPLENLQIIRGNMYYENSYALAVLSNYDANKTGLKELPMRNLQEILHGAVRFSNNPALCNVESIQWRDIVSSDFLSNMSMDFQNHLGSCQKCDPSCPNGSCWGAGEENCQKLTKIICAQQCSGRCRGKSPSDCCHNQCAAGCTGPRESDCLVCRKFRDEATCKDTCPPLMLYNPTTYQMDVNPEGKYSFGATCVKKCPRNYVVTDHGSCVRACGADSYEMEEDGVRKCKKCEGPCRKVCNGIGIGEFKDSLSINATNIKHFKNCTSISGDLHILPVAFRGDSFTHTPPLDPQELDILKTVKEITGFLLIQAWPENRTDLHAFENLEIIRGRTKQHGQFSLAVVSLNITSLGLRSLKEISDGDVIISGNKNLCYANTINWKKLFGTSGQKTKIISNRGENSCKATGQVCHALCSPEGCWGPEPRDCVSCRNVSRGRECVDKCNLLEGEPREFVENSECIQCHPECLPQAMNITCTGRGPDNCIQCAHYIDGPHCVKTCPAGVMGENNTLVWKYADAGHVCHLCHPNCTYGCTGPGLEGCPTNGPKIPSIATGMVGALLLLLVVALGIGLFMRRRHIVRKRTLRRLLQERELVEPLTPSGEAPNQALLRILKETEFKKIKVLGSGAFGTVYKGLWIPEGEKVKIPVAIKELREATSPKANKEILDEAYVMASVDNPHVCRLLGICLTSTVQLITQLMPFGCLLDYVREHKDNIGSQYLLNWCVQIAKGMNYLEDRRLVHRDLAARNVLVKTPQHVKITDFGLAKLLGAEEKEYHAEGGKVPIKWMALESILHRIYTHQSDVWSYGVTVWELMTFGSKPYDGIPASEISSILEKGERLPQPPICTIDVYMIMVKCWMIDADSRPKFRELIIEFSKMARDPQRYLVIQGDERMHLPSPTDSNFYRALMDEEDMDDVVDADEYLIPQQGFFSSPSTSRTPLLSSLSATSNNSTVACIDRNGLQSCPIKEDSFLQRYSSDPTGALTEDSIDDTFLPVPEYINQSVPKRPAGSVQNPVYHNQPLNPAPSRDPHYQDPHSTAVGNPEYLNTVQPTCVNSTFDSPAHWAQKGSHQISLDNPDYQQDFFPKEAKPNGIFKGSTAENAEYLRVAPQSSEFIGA

Row | SMILES | IC50 (EGFR) [nM] | IC50 [1] [nM] | IC50 (BTK^WT) [nM] | IC50 (BTK^C481S) [nM]
1 | COc1ccccc1C(=O)NCc1ccc(-c2nn(CC(C)O)c3ncnc(N)c23)cc1 (centres unmarked) [Example 74, N-[[4-[4-amino-1-(2-hydroxypropyl)pyrazolo[3,4-d]pyrimidin-3-yl]phenyl]methyl]-2-methoxy-benzamide] | 1000 to 10000 | 100 to 1000 | 10 to 100 | 10 to 100
2 | COc1ccccc1C(=O)NCc1ccc(-c2nn(C3CCCC3)c3ncnc(N)c23)c(OC)c1 [Example 77, N-[[4-(4-Amino-1-cyclopentyl-pyrazolo[3,4-d]pyrimidin-3-yl)-3-methoxy-phenyl]methyl]-2-methoxy-benzamide] | > 10000 | 10 to 100 | ≤ 10 | ≤ 10
3 | COc1ccccc1C(=O)NCc1ccc(-c2nn(CC(F)(F)F)c3ncnc(N)c23)cc1 [Example 90, N-[[4-[4-Amino-1-(2,2,2-trifluoroethyl)pyrazolo[3,4-d]pyrimidin-3-yl]phenyl]methyl]-2-methoxy-benzamide] | > 10000 | 1000 to 10000 | 10 to 100 | 10 to 100
4 | COc1ccc(F)cc1C(=O)NCc1ccc(-c2nn(CC(F)(F)F)c3ncnc(N)c23)cc1 [Example 93, N-[[4-[4-Amino-1-(2,2,2-trifluoroethyl)pyrazolo[3,4-d]pyrimidin-3-yl]phenyl]methyl]-5-fluoro-2-methoxy-benzamide] | > 10000 | 100 to 1000 | ≤ 10 | ≤ 10

Results, then the compound that gave them:

Row | IC50 (EGFR) [nM] | IC50 [1] [nM] | IC50 (BTK^WT) [nM] | IC50 (BTK^C481S) [nM] | SMILES
5 | 1000 to 10000 | 1000 to 10000 | 100 to 1000 | 100 to 1000 | Nc1ncnc2c1c(-c1ccc(CNC(=O)c3nccc4ccccc34)cc1)nn2C1CCCC1 [Example 69, N-[[4-(4-amino-1-cyclopentyl-pyrazolo[3,4-d]pyrimidin-3-yl)phenyl]methyl]isoquinoline-1-carboxamide]
6 | 100 to 1000 | 100 to 1000 | ≤ 10 | ≤ 10 | Nc1ncnc2c1c(-c1ccc(CNC(=O)c3cccc4cccnc34)cc1)nn2C1CCCC1 [Example 70, N-[[4-(4-amino-1-cyclopentyl-pyrazolo[3,4-d]pyrimidin-3-yl)phenyl]methyl]quinoline-8-carboxamide]
7 | 100 to 1000 | 100 to 1000 | ≤ 10 | ≤ 10 | COc1ccccc1C(=O)NCc1ccc(-c2nn(CC(C)C)c3ncnc(N)c23)cc1 [Example 76, N-[[4-(4-amino-1-isobutyl-pyrazolo[3,4-d]pyrimidin-3-yl)phenyl]methyl]-2-methoxy-benzamide]
8 | 100 to 1000 | 100 to 1000 | ≤ 10 | ≤ 10 | COc1ccccc1C(=O)NCc1ccc(-c2nn(C3CCCC3)c3ncnc(N)c23)cc1C [Example 89, N-[[4-(4-Amino-1-cyclopentyl-pyrazolo[3,4-d]pyrimidin-3-yl)-2-methyl-phenyl]methyl]-2-methoxy-benzamide]
